Patent US11304927B2, “Bioactive extract, fraction of Cassia occidentalis and formulation thereof for bone regeneration” (COUNCIL OF SCIENTIFIC AND INDUSTRIAL RESEARCH, priority 2018, dated 2022)

Experiments:
[1] = system: osteopenic mice; test: Osteopenic (OVX) mice model; type: in vivo, balb/c mice
Description: 50 adult female balb/c mice (20±3 g, 10-12 months) underwent either sham surgery or ovariectomy (OVX). 6 weeks post-surgery, mice were scanned using μCT to ensure development of osteopenia. Treatments of 219/[…] (5 mg/kg), 219/[…] (1 mg/kg and 5 mg/kg), PTH (40 μg/kg) and vehicle (water) were given to OVX mice with osteopenia for another 6 weeks, and vehicle treatment was given to sham operated mice for the same duration (n=10/group). After 6 weeks all mice were sacrificed and bones were collected for further experiment. A high-resolution X-ray micro-computed tomographic (μCT) for two-dimensional (2D) and three-dimensional (3D) assessment of bones (excised bones) were carried out using a Sky Scan 1076 μCT scanner (SkyScan, Ltd, Kartuizersweg, Kontich, Belgium). Briefly, after scanning bone samples at a nominal resolution (pixels) of 9 μm, cross-sectional reconstruction was made using SkyScanNrecon software based on a modified Feldkamp algorithm. To analyze trabecular bone, region of interest was drawn on a total of 100 slices in the region of secondary spongiosa situated 1.5 mm away from the distal border of growth plate (GP) excluding primary spongiosa and cortical bone. Quantification was done by employing Batman software encumbered with trabecular (3D) and cortical (2D) bone programs. Using μCT scans, trabecular bone mineral density (BMD) of femurs was determined from the volume of interest made for cortical and trabecular region, respectively. […] Bone mechanical strength was examined by three-point bending of femur diaphysis with bone strength tester TK […] (Muromachi Kikai Co. Ltd, Tokyo, Japan).

[2] = rat, in vivo, 250 mg/kg
Description: LC-MS/MS-API 4000 (Q-TRAP) triple quadrupole (AB-SCIEX, Toronto, Canada). The mass spectrometer was operated using an electrospray atmospheric pressure ionization source in positive ion mode.
a) Fingerprinting of 219/C002 Extract
Primary stock: 1 mg/mL in DMSO
Secondary stock: 50 ng/mL in Methanol
Continuous injection at 10 μL/min from secondary stock.
b) Fingerprinting of Blank Rat Plasma:
Blood was collected from overnight fasted rats and plasma was seperated. Plasma was precipitated with methanol (1:5 v/v), vortexed and centrifuged. The supernatant was collected and diluted with methanol (1:10 v/v). Continuous injection at 10 μL/min
c) Fingerprinting of 250 mg/kg (Oral) 219/C002 Treated Rat Plasma
Overnight fasted rats were administered 250 mg/kg 219/C002 extract suspension orally. Blood was collected after 45 min and plasma was separated. Plasma was precipitated with methanol (1:5 v/v), vortexed and centrifuged. The supernatant was collected and diluted with methanol (1:10 v/v). Continuous injection into the column at 10 μL/min.
The mass spectrometer [LC-MS/MS-API 4000 (Q-TRAP) triple quadrupole (AB-SCIEX, Toronto, Canada)] was used for the assay. Overnight fasted rats were administered 250 mg/kg extract suspension orally. Blood was collected after 45 min and plasma was separated. Plasma was precipitated with methanol, vortexed and centrifuged. The supernatant was collected and diluted with methanol. Continuous injection at 10 μL/min was done for extract, blank plasma and extract treated plasma.

[3] = system: Rat calvarial osteoblasts (RCO); test: Alkaline phosphatase (ALP) assay, osteoblast differentiation; type: cell-based; settings: 48 h, ALP activity
Description: Calvaria from ten to twelve 1-2 day old rat pups were harvested, cleaned, and subjected to five sequential enzymatic digestions (0.1% diaspase and 0.1% collagenase I) of 10-15 min each. Cells from second to fifth digestion were collected, centrifuged, re-suspended and cultured in α-MEM containing 10% fetal bovine serum (FBS) and 1% penicillin/streptomycin (complete growth medium).
For ALP assay, RCO were trypsinized at 80% confluence and 2×10^3 cells/well were seeded onto 24-well plates. Cells were treated with different compounds isolated from extract & vehicle for 48 h in α-MEM supplemented with 10 mM β-glycerophosphate, […] and 1% penicillin/streptomycin (osteoblast differentiation medium).
At the end of the experiment, cells were washed with PBS, freeze fractured by placing the plates at −70° C. for 15 minutes followed by bringing to room temperature. ALP activity was measured by adding 100 µl p-nitrophenylphosphate buffer (2 mg/ml pNPP and 0.25 mM MgCl2 in 1 M diethanolamine). The absorption was measured at 405 nm with a microplate reader.

[4] = system: Runx2 mRNA; test: qPCR osteogenic gene expression in rat calvarial osteoblast; type: cell-based; settings: mRNA by qPCR, 48 h, active concentration of the compounds
[5] = system: type 1 collagen (col1) mRNA; test: as above; type: cell-based; settings: mRNA by qPCR, 48 h, active concentration of the compounds
[6] = system: BMP2 mRNA; test: as above; type: cell-based; settings: mRNA by qPCR, 48 h, active concentration of the compounds
[7] = system: MP treated animals (adult male SD rats); test: MP induced secondary osteoporosis model; type: in vivo, rat; settings: MP 5 mg/Kg s.c. 1 month, MP alone or MP+219/C002 250 mg/kg, 219/F005 100 mg/kg, 219/F005-F 50 mg/kg
Description: 50 adult male SD rats (260±20 g, 8-10 months) were divided into 5 groups. 5 mg/Kg methylprednisolone was administered subcutaneously for 1 month to induce osteoporosis. 219/C002 (250 mg/kg), 219/F005 (100 mg/Kg), 219/F005-F (50 mg/kg) treatment were given to check the efficacy of the extract and its different fraction along with methylprednisolone (n=10/group). After 1 month all rats were sacrificed and bones were collected for further experiment.
A high-resolution X-ray micro-computed tomographic (μCT) for two-dimensional (2D) and three-dimensional (3D) assessment of bones (excised bones) were carried out using a Sky Scan 1076 μCT scanner (SkyScan, Ltd, Kartuizersweg, Kontich, Belgium). Briefly, after scanning bone samples at a nominal resolution (pixels) of 9 μm, cross-sectional reconstruction was made using SkyScanNrecon software based on a modified Feldkamp algorithm. To analyze trabecular bone, region of interest was drawn on a total of 100 slices in the region of secondary spongiosa situated 1.5 mm away from the distal border of growth plate (GP) excluding primary spongiosa and cortical bone. Quantification was done by employing Batman software encumbered with trabecular (3D) and cortical (2D) bone programs. Using μCT scans, trabecular bone mineral density (BMD) of femurs was determined from the volume of interest made for cortical and trabecular region, respectively. For calibration, hydroxyl apatite phantom rods of 4 mm of diameter with known BMD (0.25 g/cm^3 and 0.75 g/cm^3) were employed.
Animals were kept in metabolic cages without food but with respective treatment and ad libitum water. Fasting serum samples were collected after 24 h. Serumprocollagen type I N-terminal propeptide (PINP) levels were determined by ELISA (MyBioSource, USA.), following the manufacturer's protocols.
Bone mechanical strength was examined by three-point bending of femur diaphysis with bone strength tester TK 252C (Muromachi Kikai Co. Ltd, Tokyo, Japan).

SMILES | oral absorption: detection in plasma [2] | osteogenic concentration [3] | RunX2 expression [4] | Col1 expression [5] | further results
O=c1cc(-c2ccc(O)cc2)oc2cc(O)c([C@@H]3O[C@H](CO)[C@@H](O)[C@H](O)[C@H]3O)c(O)c12 [219/K017, Isovitexin] | detected in extract and in extract-treated rat plasma but not in blank rat plasma | (1 μM) | promoted | promoted | femur trabecular microarchitecture (BMD, BV/TV) ([1]; 5 mg/Kg, 6 weeks): completely restored femur trabecular microarchitecture; bone strength of femur, higher than with 219/K007 (apigenin) treatment ([1]; 6 weeks treatment): 80%; femur cortical strength (three-point bending) ([1]; 6 weeks treatment): restored femur cortical strength; total bone volume of femur, higher than with 219/K007 (apigenin) treatment ([1]; 6 weeks treatment): 72%; BMP2 expression [6]: promoted BMP2 expression
O=c1cc(-c2ccc(O)cc2)oc2cc(O)ccc12 [219/K009, 7,4′-dihydroxy flavone] | detected in extract and in extract-treated rat plasma but not in blank rat plasma | (10 nM) | promoted | promoted | 
O=c1cc(-c2ccc(O)c(O)c2)oc2cc(O)ccc12 [219/K011, 7,3′,4′-trihydroxy-flavone] |  | (10 nM) | promoted | promoted | BMP2 expression [6]: promoted BMP2 expression
C[C@H]1C[C@@H]2[C@H]([C@@H](O)C[C@@]3(C)[C@H]2CC[C@]3(O)C(=O)CO)[C@@]2(C)C=CC(=O)C=C12 [MP, Methylprednisolone] |  |  |  |  | BMD ([7]; mean, n=10): 0.281 gm-HA/cm^3; BV/TV ([7]; mean, n=10): 18.33%; Serum PINP ([7]; mean, n=10): 50.17 ng/mL; Energy ([7]; femur three-point bending): 75.67 mJ; Max power ([7]; femur three-point bending): 82.17 N; Stiffness ([7]; femur three-point bending): 108.17 N/mm
Cc1cc(O)c2c(c1)C(=O)c1cc(O)cc(O)c1C2=O [219/K012, Emodin] |  | (10 nM) |  |  | 
O=c1cc(-c2ccc(O)c(O)c2)oc2cc(O)cc(O)c12 [219/K010, Luteolin] |  | (1 nM) |  |  | 
O=c1cc(-c2ccc(O)cc2)oc2cc(O)cc(O)c12 [219/K007, Apigenin] | detected in extract and in extract-treated rat plasma but not in blank rat plasma | (1 μM) | promoted | promoted | femur cortical strength (three-point bending) ([1]; 6 weeks treatment): partially improve cortical strength
O=C(O)c1ccccn1 [Picolonic acid] | detected in extract and in extract-treated rat plasma but not in blank rat plasma |  |  |  | 
